Measured values published in US6436445B1, “Antimicrobial and antiviral compositions containing an oxidizing species” (Ecolab Inc., priority 1999, dated 2002).
Where two headings read alike, the source gives them in different places. Marks after values point to notes of the source that are not given here.

Assays:
[1] = test system: Penicillium expansum (ATCC 7861); test: Mold spore suspension test, exposure, neutralization, plating on Sabouraud Dextrose agar; type: cell-based; conditions: P. expansum, 15 minute contact time
S. aureus = test: Log reduction of bacteria by liquid compositions, 30 second contact (S. aureus); type: cell-based; conditions: for Log Reduction S. aureus: vs. untreated control
From the text: (§1) A variety of nitrogen sources are utilized. Results recorded include the color of the solution and the microbial log reduction of gram-positive and gram-negative bacteria (E. coli and S. aureus, respectively). As shown earlier there is a direct correlation between color of the solution and microbial efficacy. […] Looking at Table 6, there is an obvious direct correlation between color and antimicrobial activity. Table 7 compares formulas of the present invention with prior art examples for the reduction of gram-positive and gram-negative bacteria. […] Results recorded include the pH of the solution, the color of the solution and the log reduction in microbe.

E. coli ATCC 11229 = test: Log reduction of bacteria by liquid compositions, 30 second contact (E. coli); type: cell-based; conditions: for Log Reduction E. coli / Log Reduction: 30 second contact time; for Log Reduction E. coli: vs. untreated control; for Log Reduction: E. coli
From the text: as §1

[2] = test system: Total bacterial flora on prerigor beef tissue surfaces; test: Microbial reduction on prerigor beef tissue surfaces, 30 second treatment; type: cell-based
Feline parvovirus = conditions: cited from earlier work
[3] = published results against Feline parvovirus
[4] = Actives Conc. 300 ppm, 30 second exposure

## [I-].[K+] [KI, potassium iodide]
[1]; N-source:H2O2:KI 0:0:500 ppm, pH 5
  Log Reduction: 0.0* log
S. aureus; 30 second contact time
  Log Reduction S. aureus: 0 log
E. coli ATCC 11229
  Log Reduction E. coli: 0 log

## cocoa dimethyl betaine
S. aureus; 30 second contact time
  Log Reduction S. aureus: 0 log
E. coli ATCC 11229
  Log Reduction E. coli: 0 log

## CCCCCCCCCCCCCCCC[n+]1ccccc1 [cetyl pyridinium chloride]
[2]
  Log Reduction: 0.5 log

## CCCCCCCCCC[N+](C)(C)CCCCCCCCCC.[Cl-] [didecyl dimethyl ammonium chloride]
Z. bailii; N-source:H2O2:KI 20:0:0 ppm, pH 3, 30 second contact time
  Log Reduction: 0.1 log
[1]; N-source:H2O2:KI 100:0:0 ppm, pH 7
  Log Reduction: 1.0* log

## C[N+](C)(C)CCO.[Cl-] [choline chloride]
Z. bailii; N-source:H2O2:KI 300:0:0 ppm, pH 7, 30 second contact time
  Log Reduction: 0.0 log
S. aureus; 30 second contact time
  Log Reduction S. aureus: 0 log
E. coli ATCC 11229
  Log Reduction E. coli: 0 log
E. coli ATCC 11229; N-source:H2O2:KI 300:0:0 ppm, pH 7
  Log Reduction: 0.0 log

## CCO [Ethanol]
Feline parvovirus; [3]
  Minimum Concentration (for 10-minute inactivation): 500,000 ppm

## OO [Formula H2O2, hydrogen peroxide]
Z. bailii; N-source:H2O2:KI 0:532:0 ppm, pH 3, 30 second contact time
  Log Reduction: 0.1 log
Z. bailii; N-source:H2O2:KI 0:532:0 ppm, pH 5, 30 second contact time
  Log Reduction: 0.1 log
Z. bailii; N-source:H2O2:KI 0:532:0 ppm, pH 7, 30 second contact time
  Log Reduction: 0.1 log
[1]; N-source:H2O2:KI 0:532:0 ppm, pH 5
  Log Reduction: 0.0* log
S. aureus; 30 second contact time
  Log Reduction S. aureus: 0 log
S. aureus; [4]
  Log Reduction (CFU/ml) S. aureus: 0.4 log CFU/ml
S. aureus; S. aureus, N-source:H2O2:KI 0:300:0 ppm, pH 5, 30 second contact time
  Log Reduction: 0.4 log
E. coli ATCC 11229
  Log Reduction E. coli: 0.2 log
E. coli ATCC 11229; [4]
  Log Reduction (CFU/ml) E. coli: 0.2 log CFU/ml
E. coli ATCC 11229; N-source:H2O2:KI 0:300:0 ppm, pH 5
  Log Reduction: 0.2 log

## [Na+].[O-]Cl [NaOCl]
Feline parvovirus; [3]
  Minimum Concentration (for 10-minute inactivation): 2,000 ppm

## cocodimethyl betaine
S. aureus; 30 second contact time
  Log Reduction S. aureus: 0 log
E. coli ATCC 11229
  Log Reduction E. coli: 0 log

## O=CCCCC=O [Glutaraldehyde]
Feline parvovirus; published, (2-log)
  Minimum Concentration (for 10-minute inactivation): 10,000

## Oc1ccccc1-c1ccccc1 [o-phenylphenol G, o-phenylphenol]
Feline parvovirus; [3]
  Minimum Concentration (for 10-minute inactivation): 100,000 ppm

## CC(C)O [IPA]
Feline parvovirus; [3]
  Minimum Concentration (for 10-minute inactivation): 500,000 ppm

## CCCCCCCC[N+](C)(C)[O-] [C8 amine oxide, Octyl dimethyl aznine oxide]
S. aureus; 30 second contact time
  Log Reduction S. aureus: 0 log
E. coli ATCC 11229
  Log Reduction E. coli: 0 log

## CC(O)C(=O)O (centres unmarked) [lactic acid]
[2]; Active Antimicrobial 5000 ppm, treated 30 seconds, drained 10 minutes, relative to untreated starting meat carcass
  Log Reduction: 0.8 log
